# Test results published in PubChem BioAssay AID2305 (GlaxoSmithKline (GSK), 2010).
# Values joined by “and” are separate entries in the source; they are usually repeats but may differ in a detail not shown here. Equal entries are not always repeated.
# System: P. falciparum 3D7 growth, pLDH absorbance
# Test: blood-stage malaria parasite growth potency – strain 3D7, dose response (AID 2305)
row,SMILES,IC50
1,O=C(/C=C/c1ccc(Cl)c(Cl)c1)NCCCCCCN1CCN(C(=O)Nc2cccc(Cl)c2)CC1,980 nM
2,CN(C)CCCNc1ccnc2cc(Cl)ccc12,280 nM
3,O=C(O[C@H]1CN[C@H](C#Cc2cc3ncnc(Nc4ccc5c(ccn5S(=O)(=O)c5cccs5)c4)c3s2)C1)N1CCOCC1,1100 nM
4,CC1CCC(NCc2c(O)ccc3ccccc23)CC1 (stereo not drawn),770 nM
5,COc1ccc(CN(C)Cc2ccc(NC(=O)c3cccc4c(=O)c5cccc(C)c5[nH]c34)cc2)cc1OC,840 nM
6,COc1cc(C(=O)Nc2ccc3nc(N4CCN(C)CC4)cc(C)c3c2)cc(OC)c1OC,290 nM
7,CC1(C)N=C(N)N=C(N)N1OCCCOc1ccc(N)cc1,10 nM
8,FC(F)(F)c1cccc(CCNc2nccc(NCc3ccccc3Cl)n2)c1,1170 nM
9,CO/C(=C\C=C\c1cc2cc(Cl)c(Cl)cc2[nH]1)C(=O)NC1CCN(CCOc2ccccc2)CC1,610 nM
10,CCc1c[nH]c2c(N(c3ccccc3)S(C)(=O)=O)cc(C(=O)N[C@@H](Cc3ccccc3)[C@H](O)CNCc3cccc(C(F)(F)F)c3)cc12,1000 nM
11,O=C(NCC(CCCN1CCC(c2c[nH]c3ccccc23)CC1)c1ccccc1)Nc1ccc(Cl)c(Cl)c1 (stereo not drawn),790 nM
12,CCC(C)NC(=O)Nc1ccc(-c2cccc(-c3nc4c(C)cccc4[nH]3)c2)cc1 (stereo not drawn),190 nM
13,N#Cc1cccc(C(=O)Nc2ccc(-c3cccc(CN4CCCC4)c3)cc2)c1,710 nM
14,CCCCCCCc1[nH]c2ccccc2c(=O)c1C,510 nM
15,CC(C)Oc1cc2c(cc1NS(=O)(=O)c1ccc(-c3cccs3)cc1)CCN(C)CC2,960 nM
16,O=C(Nc1ccc(-c2cccc(-c3nc4ccc(C(F)(F)F)cc4[nH]3)c2)cc1)c1ccncc1,660 nM
17,Cc1ccccc1C1CCN(C2CCC(NC(=O)c3ccc(-c4ccccc4)s3)CC2)CC1 (stereo not drawn),660 nM
18,O=c1sn(-c2csc3ccccc23)c2ccccc12,340 nM
19,CCNc1cc(C(=O)N[C@@H](Cc2ccccc2)[C@H](O)CNCCc2ccccc2)cc(N2CCCCS2(=O)=O)c1,940 nM
20,Cc1cc(CNC(=O)[C@H](CC2CCCCC2)Nc2ccc(C#N)c3ccccc23)c(C(F)(F)F)o1,1180 nM
21,CN(c1ccccc1C(=O)Nc1ccccc1Oc1ccccc1)S(=O)(=O)c1ccccc1,1150 nM
22,CN1CC=C(c2csc3ccc(NC(=O)Nc4ccc(-c5ccncc5)c(Cl)c4)cc23)CC1,680 nM
23,COc1ccc2nccc([C@@H](O)CN3CCC(NC(=O)C(c4ccsc4)N4CCN(c5ccccc5)CC4)CC3)c2c1 (stereo partly drawn),440 nM
24,Cc1cc(N[C@@H](Cc2ccccc2)C(=O)NC2CCCC2)nc(NCCOc2ccccc2)n1,1110 nM
25,COc1ccc2ncc(F)c(CCN3C[C@H](CNCc4nc5c(cc4Cl)OCC(=O)N5)[C@H](O)C3)c2n1,950 nM and 1280 nM and 830 nM

row,SMILES,IC50
1,CCCCCCc1cc(OC)c(OC)cc1C(C)Nc1ccnc2cc(Cl)ccc12 (stereo not drawn),490 nM
2,CCc1c(CCNCCc2cccc(CCNCCc3ccc(OC)c(OC)c3CC)c2)ccc(OC)c1OC,360 nM
3,NC(=NCCCCCCCCN=C(N)Nc1ccc(Cl)cc1)Nc1ccc(Cl)cc1,590 nM
4,Cc1cccc2[nH]c(-c3cccc(-c4cccc(NC(=O)Nc5cccc(C#N)c5)c4)c3)nc12,100 nM
5,O=C(NCCN1CCCC1)c1cccc(Nc2nccc(Nc3ccc(Oc4ccccc4)cc3)n2)c1,650 nM
6,COc1ccc2nccc([C@H](O)CN3CCC(NCc4cc(C)c5c(c4)OCCO5)CC3)c2n1,900 nM
7,Cc1cc2nc(-c3ccc(C(=O)NC4CCN(Cc5ccccc5)CC4)s3)[nH]c2cc1C,770 nM
8,COc1cc(C(=O)N2CCN(C(C)C)CC2)ccc1CN(C)CCCN1CCN(c2cccc(Cl)c2Cl)CC1,780 nM
9,CCCC(C)Nc1nc(C)cc(NCCC(=O)Nc2ccc(OC)cc2)n1 (stereo not drawn),1380 nM
10,Cc1cccc2[nH]c(-c3cccc(-c4ccc(C(=O)N5CCCCC5C(C)O)cc4)c3)nc12 (stereo not drawn),370 nM
11,CCCCCc1ccc(N2C(N)=NC(N)=NC2(C)C)cc1,130 nM
12,CC(C)CCn1c(Sc2ccc([N+](=O)[O-])cc2C(F)(F)F)nnc1-c1ccccc1Cl,920 nM
13,Cc1ccc2nc(N(CCCn3ccnc3)C(=O)C=Cc3cccs3)sc2c1,1390 nM
14,COc1ccc(C=CC(=O)Nc2ccc(N3CCCC3)cc2)cc1,1280 nM
15,O=C(Nc1ccc(Cl)cc1F)N[C@H]1CCN(CCCCCNC(=O)[C@@H]2C[C@H]2c2ccc(Cl)c(Cl)c2)C1,1090 nM
16,O=C(Nc1cccc(-c2nn3ccccc3c2-c2ccnc(Nc3ccccc3)n2)c1)c1c(F)cccc1F,720 nM
17,O=S(=O)(c1ccc(NC(=S)NN=Cc2ccccn2)cc1)N1CCCCC1,720 nM
18,CN1CCCN(Cc2cccc(-c3ccc(NC(=O)c4cccc(Cl)c4)cc3)c2)CC1,930 nM
19,O=C(NC1CCC(CN2CCC(c3c[nH]c4ccccc34)CC2)CC1)c1cc(-c2ccccc2Cl)n(-c2cccc(Cl)c2)n1 (stereo not drawn),850 nM
20,COc1cccc(CN2CCC3(CC2)CN(C(=O)Nc2ccc(Cl)c(Cl)c2)C3)c1,750 nM
21,CN1CCC(c2nc(N)no2)C1 (stereo not drawn),980 nM
22,CCc1cc(-c2onc(C)c2-c2cc3ccccc3o2)c(O)cc1OC,970 nM
23,COc1ccc(N(c2nc(-c3cc(Cl)ccc3Cl)cs2)C2CCNC2)cc1 (stereo not drawn),870 nM
24,NC(N)=NC(=O)Nc1cc(Br)c(Cl)c(C(F)(F)F)c1,760 nM
25,CCN(CC)CCN(Cc1ccc(-c2ccc(C(F)(F)F)cc2)cc1)C(=O)Cn1c(CCc2cc(F)cc(F)c2F)nc(=O)c2ccccc21,760 nM

row,SMILES,IC50
1,COc1ccc2cc(-c3nc(-c4c(Cl)cccc4Cl)[nH]c3-c3ccnc(NCCCN4CCN(C)CC4)c3)ccc2c1,710 nM
2,COc1ccc2nc3cc(Cl)ccc3c(NCc3ccccc3)c2c1,870 nM
3,CNC(=O)c1cc(S(=O)(=O)Nc2ccc(OC)cc2)cs1,1130 nM
4,CCCNCc1ccc(-c2ccc(CN(CCOC)C(=O)COc3ccccc3Cl)cc2)nc1,910 nM
5,O=C(CCC1CCCC1)N(Cc1ccc(-c2ccc(CNCCc3ccccn3)cc2)cc1)CC1CCCCN1 (stereo not drawn),1150 nM
6,O=C(/C=C/c1ccc(-c2nc3ccc(Cl)cc3[nH]2)cc1)NC1CCN(Cc2ccccc2)CC1,610 nM
7,N#Cc1ccc(-c2cnc3ccc(NCc4ccc(S(N)(=O)=O)cc4)nn23)cc1,780 nM
8,CC(C)CNCc1cccc(-c2cccc(CNc3ccc4ncccc4c3)c2)c1,950 nM
9,O=C(/C=C/c1ccc(Cl)c(Cl)c1)NCC(CCCN1CCC(c2c[nH]c3ccccc23)CC1)c1ccccc1 (stereo not drawn),810 nM
10,CC(Cc1ccc(OCCCCOc2ccccc2)cc1)NCCc1ccccc1Cl (stereo not drawn),180 nM
11,O=c1cc(NCc2ccccc2NCc2ccc(Cl)c(Cl)c2)[nH]c2ccccc12,840 nM
12,COc1cc(Cc2cnc3nc(N)nc(N)c3c2C)cc(OC)c1OC,60 nM
13,OCCN1CCN(Cc2cccc(-c3ccc(-c4nc5ccc(C(F)(F)F)cc5[nH]4)s3)c2)CC1,90 nM
14,CC(=O)Nc1nc(C(=O)Nc2cccc(-c3ccc(-c4nc5ccc(F)cc5[nH]4)cc3)c2)cs1,290 nM
15,CCN(CCCN1CCCCC1)c1cc(C)nc(Nc2ccc(C)c(Br)c2)n1,250 nM
16,CCC1CCc2cc(N)cc(-c3nc4c(c(C)nn4CC)c(=O)[nH]3)c2O1 (stereo not drawn),1120 nM
17,CCCCc1cc(NC2CCN(C)CC2)nc(Nc2ccccc2)n1,660 nM
18,Cc1sc(C)c(C(F)(F)F)c1CNCCCNc1cc(=O)c2ccccc2[nH]1,1100 nM
19,COc1cc2nc(N3CCN(C(=O)c4ccco4)CC3)nc(NCc3ccccc3)c2cc1OC,170 nM
20,NCCCNc1ccc(-c2ccc(NC(=O)Nc3cc(C(F)(F)F)ccc3F)cc2)cn1,840 nM
21,N#Cc1ccc(CN2CCCN(c3ccc(NC(=O)c4ccc(F)cc4)cc3)CC2)cc1,1280 nM
22,NC(Cc1ccc(Cl)cc1)=NCCN1CCCCCC1,740 nM
23,N#Cc1ccc(-c2ccc(C(=O)NCCCCN3CC=C(c4ccc5c(c4OCC4CC4)CCCC5)CC3)cc2)cc1,620 nM
24,COc1ccc(CNCc2ccc(-c3cccc(-c4nc5ccccc5[nH]4)c3)cc2)cc1,210 nM
25,c1cc(COc2ccc(C3=NCCN3)cc2)nc(COc2ccc(C3=NCCN3)cc2)c1,150 nM

row,SMILES,IC50
1,COc1cc2ccccc2cc1CCNCCCCNCCc1cc2ccccc2cc1OC,400 nM
2,CCC1=C(C[C@H]2NCCc3cc(OC)c(OC)cc32)C[C@H]2c3cc(OC)c(OC)cc3CCN2C1,310 nM
3,Cc1c(CNCCCNc2nc3ccccc3[nH]2)sc(C(F)F)c1Br,290 nM
4,CC(C)Sc1nc(-c2ccccc2)nc2c1COC(C)(C)C2,860 nM
5,CC(C)N1CCC(NC(=O)N2CCCN(c3ncnc4cc(-c5ccc(Cl)cc5)sc34)CC2)CC1,1940 nM
6,COc1ccc(-c2ccc(NC(=O)c3cccc(Cl)c3)cc2)cc1CN1CCCN(C)CC1,600 nM
7,CCCC(=O)c1cnc2c(Oc3cc(Cl)ncn3)cccc2c1Nc1ccccc1C,340 nM
8,Cn1c2c(c3ccccc31)CN(CCC1(c3ccc(Cl)c(Cl)c3)CN(C(=O)c3ccccc3)CCO1)CC2 (stereo not drawn),310 nM
9,NC(N)=NCCN(Cc1ccccc1)c1ccccc1,350 nM
10,Cc1ccc(NC(=O)c2ccc(NCCCN3CC(C)CC(C)C3)c([N+](=O)[O-])c2)cc1F (stereo not drawn),710 nM
11,CCNc1cc(C(=O)N[C@@H](Cc2ccc(F)c(F)c2)[C@H](O)CNC2CCCCC2)cc(N2CCCCS2(=O)=O)c1,120 nM
12,OC(CN1CCN(c2cccc(Cl)c2)CC1)C(c1ccccc1)c1ccccc1 (stereo not drawn),1150 nM
13,COc1cc(NC(=O)/C=C/c2cc(F)cc(F)c2F)cc(OCCN2CCN(CCN3CCOCC3)CC2)c1,770 nM
14,COc1ccccc1CCC(C)(C)NC(=O)CC(CCc1ccccc1)Nc1ccc(C#N)c2ccccc12 (stereo not drawn),920 nM
15,Cn1nc(-c2ccc(NC(=O)Nc3ccc4ccccc4c3)c(F)c2)c2cnc(NCCN3CCOCC3)nc21,1020 nM
16,CCN1CCN(CCCNc2c3ccccc3nc3ccccc23)CC1,800 nM
17,CCC(ON1C(N)=NC(N)=NC1(C)C)c1ccccc1 (stereo not drawn),30 nM
18,OCCN1CCN(Cc2ccc(-c3cccc(-c4nc5ccccc5[nH]4)c3)cc2)CC1,750 nM
19,Cc1ccc(Nc2ccnc(Nc3ccc(C)c(F)c3)n2)cc1O,760 nM
20,CCCc1ccc(C(=O)N2[C@@H](c3nccs3)[C@@H](C(N)=O)C[C@@]2(CC(C)C)C(=O)O)cc1,160 nM
21,c1ccc(C2=NN=C(c3ccccn3)[C@H]3[C@H]4C[C@@H]([C@@H]23)[C@@H]2[C@H]4[C@H]3C[C@@H]2c2ccccc23)nc1,850 nM
22,CNC(=O)c1cnc(Nc2ccc(OCC(O)CN(C)C)cc2)nc1Nc1cccc(Br)c1 (stereo not drawn),120 nM
23,Cc1cccc2[nH]c(-c3cccc(-c4cccc(NC(=O)CNC(=O)c5ccc(O)cc5)c4)c3)nc12,990 nM
